Converted amounts (≈) assume the structure as drawn. Like-named read-outs stand apart in the source and are kept apart here.
Legend:
[1] = Equilibrium solubility of API in different media; assay type: physicochemical; details: 37 °C, 200 rpm
Description: To select an appropriate method for the preparation of precipitates, the equilibrium solubility of model drugs was firstly investigated in various media, including pH 1.0 HCl solution, pH 5.0, pH 6.5, and pH 8.0 phosphate buffer solution (PBS), fasted state simulated intestinal fluid (FaSSIF, Fa), and fed-state simulated intestinal fluid (FeSSIF, Fe). The excess sample was added to the medium, and the test of equilibrium solubility was performed with the stirring rate of 200 revolutions per minute (rpm) under 37 °C for 24 h. Sample concentration was detected every minute by Pion’s in situ fiber-optic UV dissolution monitoring system (Pion Scientific Instruments, Billerica, MA, USA), a real-time online detector. All measurements were performed in triplicate.

[2] = Intrinsic dissolution rate (disc method, Mini-IDR); assay type: physicochemical; details: same dissolution medium, 37 °C, 200 rpm
Description: The intrinsic dissolution rate (IDR) of compounds with different crystal structures was measured by the disc method based on the literature. About 10 mg of powder was loaded into the Mini-IDR compression system (Pion Inc., Billerica, MA, USA) and compressed at 100 psi (rivaroxaban) and 200 psi (Drug-A) for 1 min to obtain the miniaturized discs with a surface area of 0.071 cm^2. The discs were inserted into stirrer-die assembly and placed into flat-bottomed glass vials for dissolution analysis. At the start of the experiments, the magnetic stirrer was immediately switched on with the speed of 200 rpm, and then 10 mL of preheated (37 °C) dissolution media (FaSSIF buffer medium, FeSSIF buffer medium, FaSSIF medium and FeSSIF medium) were added into the vials at a constant temperature. The concentration was determined directly in the dissolution media every 30 s using an in situ UV probe for 2 h. All experiments were performed in triplicate, and the IDR was calculated with the following equation [30]:(1) IDR=V×dc/dt×1/A where V is the volume of medium in the glass vial; dc/dt is the slope of the straight line from the dissolution profile; A is the surface area of the disc.

[3] = stated in Materials, source not given; cited from earlier work
[4] = Equilibrium solubility / dissolution of precipitates and API in pH 6.5 FaSSIF buffer; assay type: physicochemical; details: FaSSIF buffer pH 6.5, 37 °C
Description: To estimate the solution properties of different crystal structures in near neutral or slightly acidic environments, the equilibrium solubility of various precipitates and API in the pH 6.5 FaSSIF buffer medium (FaB) was investigated. An excess sample was added to the medium, and the test of equilibrium solubility was performed with the stirring rate of 200 revolutions per minute (rpm) under 37 °C for 24 h. Sample concentration was detected every minute by Pion’s in situ fiber-optic UV dissolution monitoring system. All measurements were performed three times.

[5] = Stirring PAMPA permeability assay of precipitates and API in different donor media; assay type: in vitro ADME
Description: In order to simulate the permeation of compounds in different crystal structures in the GI tract, the stirring PAMPA method (Pion Inc., Billerica, MA, USA) was used to assess the passive transcellular permeability. The donor and acceptor chambers representing the GI tract and systemic circulation were separated by the artificial membrane (PVDF, polyvinylidenfluoride, 0.45 μm, 0.78 cm^2). The membrane surface was coated with 20 μL of lipid, which was used to simulate the microenvironment of lipids in vivo. Then, 16 mL PBS/FaSSIF/FeSSIF medium with pH 5.0 was added into the donor chamber, and 16 mL sink buffer was added into the acceptor chamber. In order to simulate the redissolution progress of precipitate in the GI tract, a slight excess of crystalline powder was added into the donor chamber. Both chambers were stirred at 200 rpm at 37 °C, and the concentration of each chamber was detected by immersed UV-probes at 320 nm and 340 nm for rivaroxaban and Drug-A, respectively. The flux was defined as the amount of compound passing through the unit area perpendicular to its flow direction in unit time and was calculated by the following equation [31]:(2) J(t)=Ct2−Ct1/A(t2−t1)×V where J(t) is the flux of a compound; Ct is the concentration of compound at t; V is the solution volume of the donor chamber; A is the area of the artificial membrane. […]

solubility at 24 h ([1]; FaSSIF, n = 3, read-out: Solubility of API, FaSSIF): 6.17 µg/mL (≈ 14.2 µM)
solubility at 24 h ([1]; FeSSIF, n = 3, read-out: Solubility of API, FeSSIF): 10.6 µg/mL (≈ 24.3 µM)
solubility at 24 h ([1]; pH 1.0 HCl solution, n = 3, read-out: Solubility of API, pH 1.0 HCl): 6.84 µg/mL (≈ 15.7 µM)
solubility at 24 h ([1]; pH 5.0 phosphate buffer solution (PBS), aqueous buffer, thermodynamic from solid, pH 5.0 PBS, n = 3, read-out: Solubility of API, pH 5.0 PBS): 4.85 µg/mL (≈ 11.1 µM)
solubility at 24 h ([1]; pH 6.5 phosphate buffer solution (PBS), pH 6.5 PBS, n = 3, read-out: Solubility of API, pH 6.5 PBS): 5.85 µg/mL (≈ 13.4 µM)
solubility at 24 h ([1]; pH 8.0 phosphate buffer solution (PBS), pH 8.0 PBS, n = 3, read-out: Solubility of API, pH 8.0 PBS): 5.87 µg/mL (≈ 13.5 µM)
Influence of crystal structure (API vs precipitates) on intrinsic dissolution rate [2]: significant influence
Dissolved rate of precipitates compared with API [4]: higher than that of API
Difference in equilibrium solubility between API and precipitates obtained from biorelevant media ([4]; 24 h, precipitates from FaSSIF, 0.5 × FeSSIF, FeSSIF, 2 × FeSSIF): no statistical difference
Permeability in donor chamber containing aqueous medium relative to donor chamber containing biorelevant medium ([5]; donor pH 5.0 PBS vs biorelevant medium, 37 °C, 200 rpm): about 1.92 fold
SMILES: O=C(NC[C@H]1CN(c2ccc(N3CCOCC3=O)cc2)C(=O)O1)c1ccc(Cl)s1 [Rivaroxaban]
log p [3]: 1.90
pKa [3]: 13.6
Permeability of API compared with precipitates ([5]; FeSSIF in the donor chamber): larger than that of precipitates obtained from biorelevant media
